Results published in patent US20110213143A1, “COMPOUND HAVING TAFIA INHIBITORY ACTIVITY” (TAISHO PHARMACEUTICAL CO., LTD., priority 2008, published 2011).
Counter-ions that a name gives are not always drawn.

Target: T1, TAFIa (Homo sapiens, UniProt Q96IY4)
T1 construct: purchased Enzyme Research Laboratories
T1 sequence (Q96IY4 115-423): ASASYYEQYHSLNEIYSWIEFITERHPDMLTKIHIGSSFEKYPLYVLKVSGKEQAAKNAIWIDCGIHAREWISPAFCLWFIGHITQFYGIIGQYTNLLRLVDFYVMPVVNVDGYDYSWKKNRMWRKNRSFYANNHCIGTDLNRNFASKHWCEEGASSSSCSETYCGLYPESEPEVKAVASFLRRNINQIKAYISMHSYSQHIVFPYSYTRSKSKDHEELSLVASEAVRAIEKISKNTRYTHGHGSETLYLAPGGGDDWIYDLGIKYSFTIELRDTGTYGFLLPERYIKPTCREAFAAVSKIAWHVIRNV
Assay: TAFIa inhibition test (Hip-Arg substrate, absorbance at 405 nm)
Assay type: biochemical
Details: 40 minutes at room temperature, read-out: IC50 (TAFIa inhibitory activity)
Procedure: Test 1 [TAFIa Inhibition Test]
Compounds of the present invention were measured for their TAFIa inhibitory activity as follows based on the method described in Thromb. Haemost. 371 (1988).
(a) Preparation of TAFIa Solution
To 450 μl of TAFI (the product of Enzyme Research Laboratories whose concentration was adjusted to 18 μg/ml with buffer A: 100 mM Tris-HCl buffer, pH 7.4), 45 μl of a thrombomodulin solution (a rabbit lung derived thrombomodulin produced by American Diagnostia whose concentration was adjusted to 1 μg/ml with buffer B: 50 mM Tris-HCl, pH 7.5, containing 0.15 M NaCl) and 45 μl of a thrombin solution (a freeze-dried human plasma derived thrombin produced by Sigma and dissolved in water to have a concentration of 30 μ/ml) were added and the mixture was left to stand for 25 minutes at room temperature.
(b) Method of Measuring TAFIa Inhibitory Activity
To wells on a 96-well microplate, the above-prepared TAFIa solution, a test compound, and a substrate solution (Hip-Arg produced by Sigma and dissolved in buffer C of 100 mM Tris-HCl buffer, pH 8.3, to have a concentration of 3.6 mM) were added in respective amounts of 20 μl/well, 10 μl/well, and 70 μl/well. The individual components were mixed well and the reaction was carried out for 40 minutes at room temperature.
Subsequently, a color former (1% cyanuric chloride in 1,4-dioxane) was added in an amount of 50 μl to each well and the plate was left to stand for 3 minutes at room temperature; then, the absorbance at 405 nm was measured with a microplate reader (Spectramax M2 of Molecular Devices). With the absorbance in the absence of a test compound minus the absorbance in the absence of an enzyme being taken as 100%, the concentration of the compound that inhibited 50% of the reaction (IC50) was calculated from the absorbance in the presence of the test compound minus the absorbance in the absence of the enzyme.
For several compounds of the present invention, the above test was conducted and on the basis of the results of measurements, TAFIa inhibitory activity was calculated to give the results shown in Table 2.

| Compound | IC50 [nM] |
| --- | --- |
| Cc1ccc2c(c1)CCc1c(CC(CCCN)C(=O)O)ncn1-2 (stereo not drawn) [Example 11, 5-amino-2-[(7-methyl-4,5-dihydroimidazo[1,5-a]quinolin-3-yl)methyl]pentanoic acid dihydrochloride] | 61 |
| CCCc1ccc2c(c1)CCc1c(CC(CCCN)C(=O)O)ncn1-2 (stereo not drawn) [Example 17, 5-amino-2-[(7-propyl-4,5-dihydroimidazo[1,5-a]quinolin-3-yl)methyl]pentanoic acid dihydrochloride] | 67 |
| NCCCC(Cc1ncn2c1CCc1ccncc1-2)C(=O)O (stereo not drawn) [Example 6, 5-amino-2-(4,5-dihydroimidazo[1,5-a] [1,7]naphthyridin-3-ylmethyl)pentanoic acid] | 1600 |
| CNCCCC(Cc1ncn2c1CCc1ccccc1-2)C(=O)O (stereo not drawn) [Example 20, 2-(4,5-dihydroimidazo[1,5-a]quinolin-3-ylmethyl)-5-(methylamino)pentanoic acid] | 2300 |
| Cc1cccc2c1-n1cnc(CC(CCCN)C(=O)O)c1CC2 (stereo not drawn) [Example 7, 5-amino-2-[(9-methyl-4,5-dihydroimidazo[1,5-a]quinolin-3-yl)methyl]pentanoic acid dihydrochloride] | 6400 |
| NCCCC(Cc1ncn2c1CCc1ncccc1-2)C(=O)O (stereo not drawn) [Example 19, 5-amino-2-(4,5-dihydroimidazo[1,5-a] [1,5]naphthyridin-3-ylmethyl)pentanoic acid] | 580 |
| NCCC[C@@H](Cc1ncn2c1CCc1cc(CCC3CCCCC3)ccc1-2)C(=O)O [Example 24, (25)-5-amino-2-{[7-(2-cyclohexylethyl)-4,5-dihydroimidazo[1,5-a]quinolin-3-yl]methyl}pentanoic acid dihydrochloride] | 43 |
| CCOc1ccc2c(c1)CCc1c(CC(CCCN)C(=O)O)ncn1-2 (stereo not drawn) [Example 14, 5-amino-2-[(7-ethoxy-4,5-dihydroimidazo[1,5-a]quinolin-3-yl)methyl]pentanoic acid] | 110 |
| NCCCC(Cc1ncn2c1Cc1ccccc1C2)C(=O)O (stereo not drawn) [Example 21, 5-amino-2-(5,10-dihydroimidazo[1,5-b]isoquinolin-1-ylmethyl)pentanoic acid] | 1400 |
| Cc1cccc2c1CCc1c(CC(CCCN)C(=O)O)ncn1-2 (stereo not drawn) [Example 10, 5-amino-2-[(6-methyl-4,5-dihydroimidazo[1,5-a]quinolin-3-yl)methyl]pentanoic acid] | 150 |
| NCCCC(Cc1ncn2c1COc1ccccc1-2)C(=O)O (stereo not drawn) [Example 5, 5-amino-2-(4H-imidazo[5,1-c][1,4]benzoxazin-3-ylmethyl)pentanoic acid] | 1100 |
| NCCCC(Cc1ncn2c1CCc1ccccc1-2)C(=O)O (stereo not drawn) [Example 1, 5-amino-2-(4,5-dihydroimidazo[1,5-a]quinolin-3-ylmethyl)pentanoic acid] | 95 |
| NCCCC(Cc1ncn2c1CCc1cc(-c3ccccc3)ccc1-2)C(=O)O (stereo not drawn) [Example 15, 5-amino-2-[(7-phenyl-4,5-dihydroimidazo[1,5-a]quinolin-3-yl)methyl]pentanoic acid dihydrochloride] | 140 |
| NCCCC(Cc1ncn2c1CCc1ccccc1-2)c1nnn[nH]1 (stereo not drawn) [Example 23, 5-(4,5-dihydroimidazo[1,5-a]quinolin-3-yl)-4-(1H-tetrazol-5-yl)pentan-1-amine] | 4400 |
| NCCCC(Cc1ncn2c1CCc1cc(OC3CCCCC3)ccc1-2)C(=O)O (stereo not drawn) [Example 16, 5-amino-2-{[7-(cyclohexyloxy)-4,5-dihydroimidazo[1,5-a]quinolin-3-yl)methyl]pentanoic acid] | 180 |
| NCCC[C@@H](Cc1ncn2c1CCc1ccccc1-2)C(=O)O [Example 2, (2S)-5-amino-2-(4,5-dihydroimidazo[1,5-a]quinolin-3-ylmethyl)pentanoic acid] | 63 |
| NCCC[C@H](Cc1ncn2c1CCc1ccccc1-2)C(=O)O [Example 3, (2R)-5-amino-2-(4,5-dihydroimidazo[1,5-a]quinolin-3-ylmethyl)pentanoic acid] | 860 |
| Nc1cc(C(Cc2ncn3c2CCc2ccccc2-3)C(=O)O)ccn1 (stereo not drawn) [Example 22, 2-(2-aminopyridin-4-yl)-3-(4,5-dihydroimidazo[1,5-a]quinolin-3-yl)propanoic acid dihydrochloride] | 5100 |
| NCCCCC(C(=O)O)c1ncn2c1CCc1ccccc1-2 (stereo not drawn) [Example 13, 6-amino-2-(4,5-dihydroimidazo[1,5-a]quinolin-3-yl)hexanoic acid] | 3300 |
| NCCCC(Cc1ncn2c1CNc1ccccc1-2)C(=O)O (stereo not drawn) [Example 18, 5-amino-2-(4,5-dihydroimidazo[1,5-a]quinoxalin-3-ylmethyl)pentanoic acid] | 630 |
| CCc1cccc2c1CCc1c(CC(CCCN)C(=O)O)ncn1-2 (stereo not drawn) [Example 8, 5-amino-2-[(6-ethyl-4,5-dihydroimidazo[1,5-a]quinolin-3-yl)methyl]pentanoic acid] | 270 |
| Cc1ccc2c(c1)-n1cnc(CC(CCCN)C(=O)O)c1CC2 (stereo not drawn) [Example 12, 5-amino-2-[(8-methyl-4,5-dihydroimidazo[1,5-a]quinolin-3-yl)methyl]pentanoic acid] | 1800 |
| CCCc1ccc2c(c1)CCc1c(C[C@H](CCCN)C(=O)O)ncn1-2 [Example 30, (S)-5-amino-2-((7-propyl-4,5-dihydroimidazo[1,5-a]quinolin-3-yl)methyl)pentanoic acid dihydrochloride] | 28 |
| NCCC[C@@H](Cc1ncn2c1CCc1cc(C3CCCCC3)ccc1-2)C(=O)O [Example 25, (2S)-5-amino-2-[(7-cyclohexyl-4,5-dihydroimidazo[1,5-a]quinolin-3-yl)methyl]pentanoic acid dihydrochloride] | 28 |
| NCCCC(Cc1ncn2c1CCc1cc(C(F)(F)F)ccc1-2)C(=O)O (stereo not drawn) [Example 27, 5-amino-2-{[7-(trifluoromethyl)-4,5-dihydroimidazo[1,5-a]quinolin-3-yl]methyl}pentanoic acid dihydrochloride] | 410 |
| NCCCC(Cc1ncn2c1CCc1c(Cl)cccc1-2)C(=O)O (stereo not drawn) [Example 9, 5-amino-2-[(6-chloro-4,5-dihydroimidazo[1,5-a]quinolin-3-yl)methyl]pentanoic acid] | 190 |
| CC(C)c1ccc2c(c1)CCc1c(C[C@H](CCCN)C(=O)O)ncn1-2 [Example 28, (2S)-5-amino-2-[(7-isopropyl-4,5-dihydroimidazo[1,5-a]quinolin-3-yl)methyl]pentanoic acid dihydrochloride] | 33 |
| NCCC[C@@H](Cc1ncn2c1CCc1cc(F)ccc1-2)C(=O)O [Example 26, (2S)-5-amino-2-[(7-fluoro-4,5-dihydroimidazo[1,5-a]quinolin-3-yl]methyl}pentanoic acid dihydrochloride] | 72 |
| NCCCC(Cc1ncn2c1CCCc1ccccc1-2)C(=O)O (stereo not drawn) [Example 4, 5-amino-2-(5,6-dihydro-4H-imidazo[1,5-a] [1]benzazepin-3-ylmethyl)pentanoic acid] | 3300 |
| Cc1ccc2c(c1)CCc1c(C[C@H](CCCN)C(=O)O)ncn1-2 [Example 29, (2S)-5-amino-2-[(7-methyl-4,5-dihydroimidazo[1,5-a]quinolin-3-yl)methyl]pentanoic acid dihydrochloride] | 25 |
